# According to patent publication US10351548B2, “2-oxo-1,2-dihydropyridine-3-carboxamide compounds and their use as inhibitors of PDK1” (INTERNATIONAL SOCIETY FOR DRUG DEVELOPMENT S.R.L., priority 2015, dated 2019):
# Like-named read-outs stand apart in the source and are kept apart here.
# Key:
# Assay in all cases: IB35 kinases profiling at 100 nM (ZLYTE)
# Assay type in all cases: biochemical
# MAP2K1 (MEK1) = MAP2K1 (MEK1) (Homo sapiens (Human), UniProt Q02750); settings: IB35 100 nM, ATP 100
# MAP2K1 (MEK1), sequence (Q02750 whole entry, species assumed): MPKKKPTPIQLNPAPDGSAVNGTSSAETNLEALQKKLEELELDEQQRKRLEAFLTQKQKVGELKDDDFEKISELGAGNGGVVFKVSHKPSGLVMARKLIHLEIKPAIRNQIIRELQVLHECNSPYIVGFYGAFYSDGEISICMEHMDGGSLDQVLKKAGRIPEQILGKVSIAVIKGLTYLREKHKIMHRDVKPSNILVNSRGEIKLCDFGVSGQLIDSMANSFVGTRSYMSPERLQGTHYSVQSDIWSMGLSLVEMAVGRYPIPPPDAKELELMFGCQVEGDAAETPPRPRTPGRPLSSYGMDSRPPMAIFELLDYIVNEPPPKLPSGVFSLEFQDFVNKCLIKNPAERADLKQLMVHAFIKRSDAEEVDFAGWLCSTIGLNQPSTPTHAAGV
# Source text: (§1) The results are reported below
# MAP2K2 (MEK2) = MAP2K2 (MEK2) (Homo sapiens (Human), UniProt P36507); settings: IB35 100 nM, ATP 100
# MAP2K2 (MEK2), sequence (P36507 whole entry, species assumed): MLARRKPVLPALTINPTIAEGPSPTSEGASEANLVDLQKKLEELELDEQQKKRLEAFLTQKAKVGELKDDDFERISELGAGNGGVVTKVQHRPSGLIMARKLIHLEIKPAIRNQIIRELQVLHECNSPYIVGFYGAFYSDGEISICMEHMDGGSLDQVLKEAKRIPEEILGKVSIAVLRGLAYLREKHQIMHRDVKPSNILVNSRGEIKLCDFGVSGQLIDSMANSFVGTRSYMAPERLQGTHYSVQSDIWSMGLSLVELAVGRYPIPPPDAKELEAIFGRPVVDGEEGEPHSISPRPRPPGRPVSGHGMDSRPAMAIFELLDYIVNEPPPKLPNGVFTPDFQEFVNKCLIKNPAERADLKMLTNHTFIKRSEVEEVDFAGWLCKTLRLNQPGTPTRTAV
# Source text: as §1
# MAPK8 (JNK1) = MAPK8 (JNK1) (Homo sapiens (Human), UniProt P45983); settings: IB35 100 nM, ATP 100
# MAPK8 (JNK1), sequence (P45983 whole entry, species assumed): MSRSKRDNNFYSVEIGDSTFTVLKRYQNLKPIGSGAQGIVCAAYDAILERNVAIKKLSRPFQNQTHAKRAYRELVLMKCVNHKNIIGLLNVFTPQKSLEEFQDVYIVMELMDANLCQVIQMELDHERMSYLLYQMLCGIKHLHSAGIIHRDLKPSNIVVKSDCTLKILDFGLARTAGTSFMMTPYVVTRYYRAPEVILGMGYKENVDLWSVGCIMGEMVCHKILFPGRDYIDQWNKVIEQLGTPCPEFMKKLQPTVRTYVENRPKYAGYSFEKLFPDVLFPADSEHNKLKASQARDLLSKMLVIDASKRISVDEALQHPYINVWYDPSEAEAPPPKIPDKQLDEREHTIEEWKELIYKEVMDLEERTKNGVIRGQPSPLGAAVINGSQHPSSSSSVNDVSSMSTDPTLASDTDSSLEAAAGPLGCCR
# Source text: as §1
# MAPKAPK2 = MAPKAPK2 (Homo sapiens (Human), UniProt P49137); settings: IB35 100 nM, ATP Km app
# MAPKAPK2, sequence (P49137 whole entry, species assumed): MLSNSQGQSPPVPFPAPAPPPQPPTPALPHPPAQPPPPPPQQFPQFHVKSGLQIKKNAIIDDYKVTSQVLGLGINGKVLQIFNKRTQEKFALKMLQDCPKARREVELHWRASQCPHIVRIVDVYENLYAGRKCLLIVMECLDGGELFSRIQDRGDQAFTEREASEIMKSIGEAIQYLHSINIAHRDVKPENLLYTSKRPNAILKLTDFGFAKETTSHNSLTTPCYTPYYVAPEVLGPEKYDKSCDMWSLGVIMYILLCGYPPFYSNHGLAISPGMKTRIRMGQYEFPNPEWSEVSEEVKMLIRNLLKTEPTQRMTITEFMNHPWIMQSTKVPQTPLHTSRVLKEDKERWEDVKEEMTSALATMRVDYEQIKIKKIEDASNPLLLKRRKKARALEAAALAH
# Source text: as §1
# MARK1 (MARK) = MARK1 (MARK) (Homo sapiens (Human), UniProt Q9P0L2); settings: IB35 100 nM, ATP Km app
# MARK1 (MARK), sequence (Q9P0L2 whole entry, species assumed): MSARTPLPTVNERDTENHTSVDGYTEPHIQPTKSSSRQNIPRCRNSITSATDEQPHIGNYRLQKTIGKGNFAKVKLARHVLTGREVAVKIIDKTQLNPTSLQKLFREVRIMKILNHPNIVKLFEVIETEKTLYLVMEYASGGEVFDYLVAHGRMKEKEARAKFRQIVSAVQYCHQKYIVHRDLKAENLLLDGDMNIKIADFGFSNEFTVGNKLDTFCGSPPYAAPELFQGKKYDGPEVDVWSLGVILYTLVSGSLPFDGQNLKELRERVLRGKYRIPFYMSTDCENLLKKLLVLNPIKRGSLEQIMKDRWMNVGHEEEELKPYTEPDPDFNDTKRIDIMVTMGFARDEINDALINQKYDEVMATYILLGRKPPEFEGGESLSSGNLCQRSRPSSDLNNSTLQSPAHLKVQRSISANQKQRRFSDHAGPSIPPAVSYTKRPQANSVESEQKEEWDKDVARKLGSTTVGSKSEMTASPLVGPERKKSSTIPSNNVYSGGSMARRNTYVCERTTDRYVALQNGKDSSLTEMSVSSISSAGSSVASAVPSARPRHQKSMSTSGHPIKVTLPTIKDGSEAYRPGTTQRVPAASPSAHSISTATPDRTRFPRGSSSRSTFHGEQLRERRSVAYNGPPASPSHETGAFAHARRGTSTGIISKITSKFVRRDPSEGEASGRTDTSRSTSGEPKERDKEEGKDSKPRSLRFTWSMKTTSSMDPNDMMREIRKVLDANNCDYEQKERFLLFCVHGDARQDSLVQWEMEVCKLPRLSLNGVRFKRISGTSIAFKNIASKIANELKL
# Source text: as §1
# PAK6 = PAK6 (Homo sapiens (Human), UniProt Q9NQU5); settings: IB35 100 nM, ATP Km app
# Source text: as §1
# PRKACA (PKA) = PRKACA (PKA) (Homo sapiens (Human), UniProt P17612); settings: IB35 100 nM, ATP Km app
# Source text: as §1
# PRKCB1 (PKC beta I) = PRKCB1 (PKC beta I) (Homo sapiens (Human), UniProt P05771); settings: IB35 100 nM, ATP Km app
# PRKCB1 (PKC beta I), sequence (P05771 whole entry, species assumed): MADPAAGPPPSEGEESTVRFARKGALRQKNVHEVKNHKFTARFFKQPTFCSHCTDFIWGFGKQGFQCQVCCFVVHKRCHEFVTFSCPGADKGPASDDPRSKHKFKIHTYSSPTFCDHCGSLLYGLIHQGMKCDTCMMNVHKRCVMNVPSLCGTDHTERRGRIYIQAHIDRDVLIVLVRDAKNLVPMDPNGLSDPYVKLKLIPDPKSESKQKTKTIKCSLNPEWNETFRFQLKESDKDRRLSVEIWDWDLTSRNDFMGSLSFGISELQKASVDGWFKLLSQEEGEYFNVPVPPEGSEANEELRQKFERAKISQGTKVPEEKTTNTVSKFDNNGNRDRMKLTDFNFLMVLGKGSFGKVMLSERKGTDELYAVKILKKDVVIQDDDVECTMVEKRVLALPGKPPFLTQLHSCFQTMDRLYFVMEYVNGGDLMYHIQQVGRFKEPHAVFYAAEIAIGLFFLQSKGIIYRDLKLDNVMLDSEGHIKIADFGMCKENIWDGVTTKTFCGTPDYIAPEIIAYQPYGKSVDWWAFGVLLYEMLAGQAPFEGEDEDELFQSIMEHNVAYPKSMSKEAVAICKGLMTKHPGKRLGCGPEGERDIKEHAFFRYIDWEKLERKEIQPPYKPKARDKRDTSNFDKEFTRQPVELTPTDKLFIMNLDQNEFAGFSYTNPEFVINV
# Source text: as §1
# PRKCD (PKC delta) = PRKCD (PKC delta) (Homo sapiens (Human), UniProt Q05655); settings: IB35 100 nM, ATP Km app
# Source text: as §1
# RAF1 (cRAF) Y340D Y341D = RAF1 (cRAF) Y340D Y341D (Homo sapiens (Human), UniProt P04049, Y340D/Y341D); settings: IB35 100 nM, ATP 100
# RAF1 (cRAF) Y340D Y341D, sequence (P04049 whole entry Y340D/Y341D, species assumed): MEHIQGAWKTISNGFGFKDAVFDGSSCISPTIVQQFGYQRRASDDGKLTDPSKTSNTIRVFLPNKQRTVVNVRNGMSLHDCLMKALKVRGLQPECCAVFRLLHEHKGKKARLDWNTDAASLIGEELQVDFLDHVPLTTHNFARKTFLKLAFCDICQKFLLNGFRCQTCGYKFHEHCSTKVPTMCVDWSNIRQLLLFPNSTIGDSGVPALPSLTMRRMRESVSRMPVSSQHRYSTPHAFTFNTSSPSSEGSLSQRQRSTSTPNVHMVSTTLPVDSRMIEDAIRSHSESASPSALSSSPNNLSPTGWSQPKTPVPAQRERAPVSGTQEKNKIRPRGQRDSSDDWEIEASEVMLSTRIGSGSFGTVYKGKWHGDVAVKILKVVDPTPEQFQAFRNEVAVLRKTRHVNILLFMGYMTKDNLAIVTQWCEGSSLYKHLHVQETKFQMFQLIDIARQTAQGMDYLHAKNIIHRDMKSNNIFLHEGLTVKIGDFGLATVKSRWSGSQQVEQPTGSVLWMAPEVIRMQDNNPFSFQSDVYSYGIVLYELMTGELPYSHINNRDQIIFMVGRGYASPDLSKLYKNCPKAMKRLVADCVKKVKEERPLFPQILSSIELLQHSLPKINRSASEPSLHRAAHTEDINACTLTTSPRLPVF
# Source text: as §1
# ROCK1 = ROCK1 (Homo sapiens (Human), UniProt Q13464); settings: IB35 100 nM, ATP Km app
# Source text: as §1
# ROCK2 = ROCK2 (Homo sapiens (Human), UniProt O75116); settings: IB35 100 nM, ATP Km app
# Source text: as §1
# RPS6KA1 (RSK1) = RPS6KA1 (RSK1) (Homo sapiens (Human), UniProt Q15418); settings: IB35 100 nM, ATP Km app
# RPS6KA1 (RSK1), sequence (Q15418 whole entry, species assumed): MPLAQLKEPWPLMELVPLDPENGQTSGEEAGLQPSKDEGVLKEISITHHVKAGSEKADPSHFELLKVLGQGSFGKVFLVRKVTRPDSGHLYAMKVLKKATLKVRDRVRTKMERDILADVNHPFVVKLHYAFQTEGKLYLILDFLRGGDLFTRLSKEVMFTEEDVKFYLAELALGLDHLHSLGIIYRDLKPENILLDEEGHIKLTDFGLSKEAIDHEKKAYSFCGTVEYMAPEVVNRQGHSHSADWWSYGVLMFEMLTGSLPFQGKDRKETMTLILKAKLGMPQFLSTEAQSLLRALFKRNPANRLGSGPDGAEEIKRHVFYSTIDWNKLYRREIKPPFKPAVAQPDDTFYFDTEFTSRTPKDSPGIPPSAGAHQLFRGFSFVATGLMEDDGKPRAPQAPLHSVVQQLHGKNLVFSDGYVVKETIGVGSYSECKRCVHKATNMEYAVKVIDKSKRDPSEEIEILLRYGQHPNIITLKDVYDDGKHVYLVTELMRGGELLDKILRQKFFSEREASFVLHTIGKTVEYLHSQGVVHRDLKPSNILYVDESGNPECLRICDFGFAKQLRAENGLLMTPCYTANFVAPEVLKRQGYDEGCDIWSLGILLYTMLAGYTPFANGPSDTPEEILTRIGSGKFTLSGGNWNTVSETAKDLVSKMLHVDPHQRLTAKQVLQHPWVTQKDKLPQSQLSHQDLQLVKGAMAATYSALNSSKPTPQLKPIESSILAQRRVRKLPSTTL
# Source text: as §1
# SRC = SRC (Homo sapiens (Human), UniProt P12931); settings: IB35 100 nM, ATP Km app
# SRC, sequence (P12931 whole entry, looked up, species assumed): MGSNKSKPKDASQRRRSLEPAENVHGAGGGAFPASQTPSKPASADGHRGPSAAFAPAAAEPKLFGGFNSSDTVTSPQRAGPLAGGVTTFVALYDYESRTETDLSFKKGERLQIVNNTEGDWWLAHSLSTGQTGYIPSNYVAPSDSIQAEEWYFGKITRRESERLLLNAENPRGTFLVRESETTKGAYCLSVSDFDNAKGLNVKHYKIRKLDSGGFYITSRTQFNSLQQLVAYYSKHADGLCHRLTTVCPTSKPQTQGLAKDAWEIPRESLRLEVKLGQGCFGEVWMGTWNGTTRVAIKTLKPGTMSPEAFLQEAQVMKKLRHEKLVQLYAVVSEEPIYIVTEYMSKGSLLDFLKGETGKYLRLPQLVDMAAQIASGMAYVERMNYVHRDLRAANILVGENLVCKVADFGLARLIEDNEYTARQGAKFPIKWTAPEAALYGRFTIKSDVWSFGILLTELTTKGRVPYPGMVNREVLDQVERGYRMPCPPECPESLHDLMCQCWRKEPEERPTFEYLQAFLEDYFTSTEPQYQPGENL
# Source text: as §1
smiles,measurement,setting,value
"O=C(CNC(=O)c1cccn(Cc2ccc(F)c(F)c2)c1=O)Nc1ccc2c(c1)/C(=C/c1cnc[nH]1)C(=O)N2 [IB35, (Z)—N-(2-((3-((1H-imidazol-5-yl)methylene)-2-oxoindolin-5-yl)amino)-2-oxoethyl)-1-(3,4-difluorobenzyl)-2-oxo-1,2-dihydro pyridine-3-carboxamide]",inhibition at 0.1 µM,MAP2K1 (MEK1); read-out: % Inhibition 2,-6%
same,inhibition at 0.1 µM,MAP2K1 (MEK1); read-out: % Inhibition Avg,-13%
same,inhibition at 0.1 µM,MAP2K2 (MEK2); read-out: % Inhibition 1,13%
same,inhibition at 0.1 µM,MAP2K2 (MEK2); read-out: % Inhibition 2,6%
same,inhibition at 0.1 µM,MAP2K2 (MEK2); read-out: % Inhibition Avg,9%
same,inhibition at 0.1 µM,MAPK8 (JNK1); read-out: % Inhibition 1,4%
same,inhibition at 0.1 µM,MAPK8 (JNK1); read-out: % Inhibition 2,21%
same,inhibition at 0.1 µM,MAPK8 (JNK1); read-out: % Inhibition Avg,12%
same,inhibition at 0.1 µM,MAPKAPK2; read-out: % Inhibition 1,-2%
same,inhibition at 0.1 µM,MAPKAPK2; read-out: % Inhibition 2,2%
same,inhibition at 0.1 µM,MAPKAPK2; read-out: % Inhibition Avg,0%
same,inhibition at 0.1 µM,MARK1 (MARK); read-out: % Inhibition 1,20%
same,inhibition at 0.1 µM,MARK1 (MARK); read-out: % Inhibition 2,13%
same,inhibition at 0.1 µM,MARK1 (MARK); read-out: % Inhibition Avg,17%
same,inhibition at 0.1 µM,PAK6; read-out: % Inhibition 1,1%
same,inhibition at 0.1 µM,PAK6; read-out: % Inhibition 2,-9%
same,inhibition at 0.1 µM,PAK6; read-out: % Inhibition Avg,-4%
same,inhibition at 0.1 µM,PRKACA (PKA); read-out: % Inhibition 1,-5%
same,inhibition at 0.1 µM,PRKACA (PKA); read-out: % Inhibition 2,-5%
same,inhibition at 0.1 µM,PRKACA (PKA); read-out: % Inhibition Avg,-5%
same,inhibition at 0.1 µM,PRKCB1 (PKC beta I); read-out: % Inhibition 1,-10%
same,inhibition at 0.1 µM,PRKCB1 (PKC beta I); read-out: % Inhibition 2,-10%
same,inhibition at 0.1 µM,PRKCB1 (PKC beta I); read-out: % Inhibition Avg,-10%
same,inhibition at 0.1 µM,PRKCD (PKC delta); read-out: % Inhibition 1,-2%
same,inhibition at 0.1 µM,PRKCD (PKC delta); read-out: % Inhibition 2,-12%
same,inhibition at 0.1 µM,PRKCD (PKC delta); read-out: % Inhibition Avg,-7%
same,inhibition at 0.1 µM,RAF1 (cRAF) Y340D Y341D; read-out: % Inhibition 1,10%
same,inhibition at 0.1 µM,RAF1 (cRAF) Y340D Y341D; read-out: % Inhibition 2,11%
same,inhibition at 0.1 µM,RAF1 (cRAF) Y340D Y341D; read-out: % Inhibition Avg,10%
same,inhibition at 0.1 µM,ROCK1; read-out: % Inhibition 1,-9%
same,inhibition at 0.1 µM,ROCK1; read-out: % Inhibition 2,-6%
same,inhibition at 0.1 µM,ROCK1; read-out: % Inhibition Avg,-7%
same,inhibition at 0.1 µM,ROCK2; read-out: % Inhibition 1,3%
same,inhibition at 0.1 µM,ROCK2; read-out: % Inhibition 2,1%
same,inhibition at 0.1 µM,ROCK2; read-out: % Inhibition Avg,2%
same,inhibition at 0.1 µM,RPS6KA1 (RSK1); read-out: % Inhibition 1,-3%
same,inhibition at 0.1 µM,RPS6KA1 (RSK1); read-out: % Inhibition 2,7%
same,inhibition at 0.1 µM,RPS6KA1 (RSK1); read-out: % Inhibition Avg,2%
same,inhibition at 0.1 µM,SRC; read-out: % Inhibition 1,8%
same,inhibition at 0.1 µM,SRC; read-out: % Inhibition 2,6%
same,inhibition at 0.1 µM,SRC; read-out: % Inhibition Avg,7%
